For series [1] the following is noted: increased salt concentrations (Fairbanks and Burch, 1970); cited from earlier work.
For a further series, the target named is T1, peroxidasin (Mus musculus, UniProt Q3UQ28).
T1 construct: Cultured murine PFHR9 cells synthesize collagen IV networks that contain sulfilimine crosslinks due to the activity of PXDN; endogenous in cells; host or cells: PFHR-9 cells (isolated matrix from KI-treated culture)
T1 sequence (Q3UQ28 24-1475): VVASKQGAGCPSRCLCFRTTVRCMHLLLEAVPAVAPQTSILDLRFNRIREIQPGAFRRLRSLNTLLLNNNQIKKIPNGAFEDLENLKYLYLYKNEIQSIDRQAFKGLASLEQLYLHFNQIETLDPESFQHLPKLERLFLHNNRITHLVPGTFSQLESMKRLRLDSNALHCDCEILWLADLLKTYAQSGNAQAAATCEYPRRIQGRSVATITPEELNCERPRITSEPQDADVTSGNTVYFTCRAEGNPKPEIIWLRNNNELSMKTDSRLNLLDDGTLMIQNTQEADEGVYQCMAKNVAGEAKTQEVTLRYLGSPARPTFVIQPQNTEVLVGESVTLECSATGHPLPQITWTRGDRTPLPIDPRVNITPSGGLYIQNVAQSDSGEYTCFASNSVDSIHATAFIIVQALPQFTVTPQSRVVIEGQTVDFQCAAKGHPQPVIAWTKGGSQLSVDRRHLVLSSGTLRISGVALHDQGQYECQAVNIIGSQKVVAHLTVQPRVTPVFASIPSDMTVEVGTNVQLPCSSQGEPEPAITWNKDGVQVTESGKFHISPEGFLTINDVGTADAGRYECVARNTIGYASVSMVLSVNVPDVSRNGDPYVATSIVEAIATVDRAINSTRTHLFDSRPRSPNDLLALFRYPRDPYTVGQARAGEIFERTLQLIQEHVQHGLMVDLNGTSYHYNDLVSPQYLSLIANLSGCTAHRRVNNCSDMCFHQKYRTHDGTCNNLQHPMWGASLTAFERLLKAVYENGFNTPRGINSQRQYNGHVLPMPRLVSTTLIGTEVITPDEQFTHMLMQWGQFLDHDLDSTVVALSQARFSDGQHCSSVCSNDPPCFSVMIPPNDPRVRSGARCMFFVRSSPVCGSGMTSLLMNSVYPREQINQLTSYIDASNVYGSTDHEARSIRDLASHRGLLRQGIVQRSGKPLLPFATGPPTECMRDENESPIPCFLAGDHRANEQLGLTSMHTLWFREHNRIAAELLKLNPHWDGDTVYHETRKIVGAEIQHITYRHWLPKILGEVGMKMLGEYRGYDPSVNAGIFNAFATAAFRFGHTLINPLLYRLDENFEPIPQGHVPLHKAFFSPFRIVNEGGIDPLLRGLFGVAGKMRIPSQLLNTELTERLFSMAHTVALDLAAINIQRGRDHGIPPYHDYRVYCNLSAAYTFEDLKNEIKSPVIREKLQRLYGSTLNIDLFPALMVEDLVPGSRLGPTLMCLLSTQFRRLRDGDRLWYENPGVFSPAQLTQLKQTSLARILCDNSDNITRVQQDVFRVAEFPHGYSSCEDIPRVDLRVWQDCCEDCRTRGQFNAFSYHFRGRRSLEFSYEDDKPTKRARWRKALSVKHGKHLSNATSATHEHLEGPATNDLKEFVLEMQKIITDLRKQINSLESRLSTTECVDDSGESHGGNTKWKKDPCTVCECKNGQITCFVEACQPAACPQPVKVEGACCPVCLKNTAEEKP
Put plainly: In vitro basement membrane (uncrosslinked PFHR-9 matrix) reaction with halides and H2O2. Type of series: biochemical. The protocol:
(FIG. 8A) Matrix pellets isolated from KI-treated PFHR9 cell culture were extensively washed into 10 mM phosphate buffer (pH 7.4) supplemented with 100 mM KF to maintain ionic strength. Potassium salts of Cl— or Br— were added in indicated amounts. 1 hr reactions at 37° C. were initiated by addition of H2O2 to 1 mM and stopped by freezing at −20° C. Coomassie blue-stained gels after collagenase digestion of the samples and SDS-PAGE (FIG. 8B) Schematic of Br-Free chloride salt purification apparatus and setup. […] Reagent KCl was commercially obtained and unaltered prior to analysis. 100 mM solutions were made with 18MΩ deionized water. (FIG. 8C) Coomassie blue stained gel of collagenase digested PFHR-9 matrix reaction assay. Reaction buffered contained 10 mM phosphate buffer (pH 7.4), 100 mM Br-Free or Commercially obtained reagent grade KCl, as well as 1 mM H2O2 and 200 μM PHG where appropriate. (FIG. 8D) SDS-PAGE and coomassie blue stain of hPXDN (27.25 nM) and NC1 domain (1.3 μM) reaction and subsequent densiometric quantitation of S═N bond formation stiochiometry in response to NaBr addition. hPXDN and PFHR-9 NC1 domain were prepared and purified as described (5), except with all buffers for all purification steps (dialysis, chromatography, gradient ultracentrifugation) made with Br-Free chloride salts. Reactions were run for 10 minutes at 37° C. with 10 μM H2O2 as the terminal oxidant. Dose-response curve run in the presence of 1× Br-Free PBS. Reactions were quenched with 0.2 mg/ml Catalase, 20 mM Methionine, and 1 mM PHG. EC50 value±95% C.I. from two independent experiments with each data point plotted and fit.
Uncrosslinked PFHR9 matrix was extensively washed into 10 mM phosphate buffer (pH 7.4) that was supplemented with 100 mM KF to maintain ionic strength. One hour reactions at 37° C. were initiated by addition of H2O2 to 1 mM and stopped by freezing at −20° C. […] Samples were digested with collagenase at 37° C. overnight and visualized by SDS-PAGE using 12% gels under non-reducing conditions with Coomassie staining.
PFHR-9 cells treated with potassium iodide (1-10 mM) to eliminate NC1 hexamer crosslinks were used for basement membrane isolation. To test halide dependency, the inventors established halide-free conditions by washing extensively (at least five times) with 10 mM sodium phosphate pH 7.4. To try to extract or inactivate endogenous basement membrane peroxidase activity, the inventors extracted the matrix preparation twice with 2M guanidine-Cl, 50 mM Tris-Cl pH 7.5 and 10 mM EDTA-Na pH 8 followed by extensive washing with 1×PBS. Basement membrane was resuspended in the desired buffer with or without cofactors and inhibitors to examine in vitro NC1 crosslinking under various conditions. Basement membranes were collagenase solubilized to delineate collagen IV NC1 sulfilimine crosslink formation with SDS-PAGE and Coomassie blue staining membrane was isolated, washed extensively and resuspended in 1×PBS. Azide (0-10 mM) and 1 mM H2O2 were added and allowed to react for 1 h at 37° C. The matrix was pelleted, washed extensively with 1×PBS and solubilized with 1×PBS plus 2% (w/v) SDS. Solubilized proteins were reacted with 100 μM Tris[(1-benzyl-1H-1,2,3-triazol-4-yl)methyl]amine (Anaspec), 1 mM Tris(2-carboxyethyl)phosphine hydrochloride (ThermoFisher Pierce), 1 mM cupric sulfate and 100 μM biotin alkyne (PEG4 carboxamide-propargyl biotin; Life Technologies) for 1 h at 37° C. Click chemistry reactions were quenched with 1 mM 3′-azido-3′-deoxythymidine (Sigma). For avidin-HRP detection, samples were electrophoresed under reducing conditions, transferred to nitrocellulose membranes and probed with streptavidin-HRP according to manufacturer instructions (ThermoFisher Pierce). To isolate biotinylated proteins, the inventors precipitated click reaction products with two volumes of cold acetone to remove reactants, washed them with 70% (v/v) acetone and then resolubilized them in 1×PBS plus 2% SDS.

These results are taken from patent US10183039B2, “Methods for the production of collagen IV” (Vanderbilt University, priority 2013, dated 2019).

Molecules are shown by their SMILES.

Consider `Cl` [chloride], for which the “half-life in the fly” value in series [1] is roughly 5 h. In addition, at peroxidasin, the “halide concentration permitting enzymatic crosslinking within purified matrix” value worked out at 100 mM. Further, at peroxidasin (10 mM phosphate pH 7.4, 100 mM KF, 1 mM H2O2, 1 h at 37° C.), the “S═N bond formation in isolated matrix” value was “remained inactive until 100 mM”. For the same compound, at peroxidasin (100 mM Br-free chloride salt, 1 mM H2O2, isolated PFHR-9 matrix), the “dimer formation with bromide-free chloride as halide source” value is recorded as “insufficient for the reaction”. In addition, on peroxidasin (H2O2 added to uncrosslinked basement membrane without other halides (FIG. 3B)), the “halide concentration at which crosslinked dimeric subunits formed” value is listed as roughly 100 mM.
